Data published in patent publication US20240217968A1, “PHARMACEUTICAL COMPOUND” (DUKE STREET BIO LIMITED, priority 2021, published 2024).

Biological target: T1, recombinant human Flag-tagged PARP7 (amino acids 456-657) (Homo sapiens, UniProt Q7Z3E1)
T1 construct: recombinant human Flag-tagged PARP7 (amino acids 456-657)
T1 sequence (Q7Z3E1 456-657): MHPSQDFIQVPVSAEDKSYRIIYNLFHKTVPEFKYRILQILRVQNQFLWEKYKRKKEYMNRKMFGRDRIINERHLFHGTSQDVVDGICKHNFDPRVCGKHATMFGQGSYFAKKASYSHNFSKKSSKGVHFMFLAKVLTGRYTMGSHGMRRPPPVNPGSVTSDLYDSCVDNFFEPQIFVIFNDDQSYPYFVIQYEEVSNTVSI
Test: PARP7 biochemical DELFIA assay (auto-MARylation)
Conditions: DELFIA readout, IC50 class
How it was run: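 Flag-PARP7 (456-657), 12.5-37.5 nM stock, captured on anti-FLAG wells, preincubated 30 min with compound, then auto-MARylated with biotin-NAD+ (15 μM stock) in HEPES pH 7.5/NaCl/DTT/BSA/Tween for 2-3 h at room temperature. NAD+ quench; Eu-streptavidin DELFIA read, Ex337/Em620 nm.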

SMILES	IC50
CC(COCCC(=O)N1CCN(c2ncc(Cl)cn2)CC1)n1cc(C(F)(F)F)c2c(=O)[nH]ncc21 (centres unmarked) [Compound 273]	≤ 100 nM
CC(COCCC(=O)N1CCN(c2ccc(OC(F)F)cn2)CC1)n1nc(C(F)(F)F)c2c(=O)[nH]ncc21 (centres unmarked) [Compound 275]	≤ 100 nM
O=C(CCOCCn1nc(C(F)(F)F)c2c(=O)[nH]ncc21)N1CCN(c2nnc(C(F)(F)F)s2)CC1 [Compound 276]	≤ 100 nM
O=C(CCOCCN1C(=O)CCc2c1cn[nH]c2=O)N1CCN(c2nc3ccccc3o2)CC1 [Compound 277]	≤ 100 nM
CC(COCCC(=O)N1CCN(c2ccc(C3CC3)cn2)CC1)n1nc(C(F)(F)F)c2c(=O)[nH]ncc21 (centres unmarked) [Compound 278]	≤ 100 nM
O=C(CCOCCc1cccc2c(=O)[nH]ncc12)N1CCC(c2cc(C(F)(F)F)[nH]n2)CC1 [Compound 282]	1000 to 10000 nM
CC(COCCC(=O)N1CCN(c2ncc(C#N)s2)CC1)n1nc(C(F)(F)F)c2c(=O)[nH]ncc21 (centres unmarked) [Compound 283]	≤ 100 nM
O=C(CCOCCn1nc(C(F)(F)F)c2c(=O)[nH]ncc21)N1CCN(c2ncc(Cl)cn2)CC1 [Compound 285]	≤ 100 nM
Cc1cnc(N2CCN(C(=O)CCOCC(C)n3nc(C(F)(F)F)c4c(=O)[nH]ncc43)CC2)nc1 (centres unmarked) [Compound 286]	≤ 100 nM
Cc1cnc(N2CCN(C(=O)CCOCC(C)n3nc(C(F)(F)F)c4c(=O)[nH]ncc43)CC2)nc1 (centres unmarked) [Compound 287]	≤ 100 nM
CC(COCCC(=O)N1CCN(c2ncc(C3COC3)cn2)CC1)n1nc(C(F)(F)F)c2c(=O)[nH]ncc21 (centres unmarked) [Compound 288]	≤ 100 nM
CC(COCCC(=O)N1CCN(c2nnc(C(F)(F)F)s2)CC1)n1nc(C(F)(F)F)c2c(=O)[nH]ncc21 (centres unmarked) [Compound 292]	≤ 100 nM
CC(COCCC(=O)N1CCN(c2ncc(OC(F)F)cn2)CC1)n1nc(C(F)(F)F)c2c(=O)[nH]ncc21 (centres unmarked) [Compound 293]	≤ 100 nM
O=C(CCOCCn1nc(C(F)(F)F)c2c(=O)[nH]ncc21)N1CCN(c2ccc(C3COC3)cn2)CC1 [Compound 295]	≤ 100 nM
CCC(COCCC(=O)N1CCN(c2ncc(C(F)(F)F)cn2)CC1)n1nc(C(F)(F)F)c2c(=O)[nH]ncc21 (centres unmarked) [Compound 297]	≤ 100 nM
CCC(COCCC(=O)N1CCN(c2ncc(C(F)(F)F)cn2)CC1)n1nc(C(F)(F)F)c2c(=O)[nH]ncc21 (centres unmarked) [Compound 298]	≤ 100 nM
O=C(CCOCCn1nc(C(F)(F)F)c2c(=O)[nH]ncc21)N1CCN(c2nc(C(F)(F)F)cs2)CC1 [Compound 299]	≤ 100 nM
O=C(CCOCCn1nc(C(F)(F)F)c2c(=O)[nH]ncc21)N1CCN(c2ccc(C3CC3)cn2)CC1 [Compound 300]	≤ 100 nM
O=C1CCc2cnc(N3CCN(C(=O)CCOCCn4nc(C(F)(F)F)c5c(=O)[nH]ncc54)CC3)nc2N1 [Compound 303]	≤ 100 nM
CNC(=O)c1ccc(N2CCN(C(=O)CCOCC(C)n3nc(C(F)(F)F)c4c(=O)[nH]ncc43)CC2)nc1 (centres unmarked) [Compound 304]	100 to 1000 nM
COc1ccc(N2CCN(C(=O)CCOCC(C)n3nc(C(F)(F)F)c4c(=O)[nH]ncc43)CC2)nc1 (centres unmarked) [Compound 307]	≤ 100 nM
CC1CN(C(=O)CCOCCN2C(=O)CCc3c2cn[nH]c3=O)CCN1c1ncc(C(F)(F)F)cn1 (centres unmarked) [Compound 308]	≤ 100 nM
CC1CN(C(=O)CCOCCN2C(=O)CCc3c2cn[nH]c3=O)CCN1c1ncc(C(F)(F)F)cn1 (centres unmarked) [Compound 309]	≤ 100 nM
CC(COCCC(=O)N1CCN(c2cnc(C#N)cn2)CC1)n1nc(C(F)(F)F)c2c(=O)[nH]ncc21 (centres unmarked) [Compound 312]	≤ 100 nM

SMILES	IC50
CC(COCCC(=O)N1CCN(c2cnc(C#N)cn2)CC1)n1nc(C(F)(F)F)c2c(=O)[nH]ncc21 (centres unmarked) [Compound 313]	≤ 100 nM
O=C(CCOCCn1nc(C(F)(F)F)c2c(=O)[nH]ncc21)N1CCN(c2nc(C(F)(F)F)co2)CC1 [Compound 314]	≤ 100 nM
O=C(CCOCCn1nc(C(F)(F)F)c2c(=O)[nH]ncc21)N1CCN(c2ncc(C3CC3)cn2)CC1 [Compound 315]	≤ 100 nM
O=C1NCCn2c(CCOCCC(=O)N3CCN(c4ncc(C(F)(F)F)cn4)CC3)cc(C(F)(F)F)c21 [Compound 316, 6-(2-(3-oxo-3-(4-(5-(trifluoromethyl)pyrimidin-2-yl)piperazin-1-yl)propoxy)ethyl)-8-(trifluoromethyl)-3,4-dihydropyrrolo[1,2-a]pyrazin-1(2H)-one]	≤ 100 nM
CN(C(=O)COCCn1nc(C(F)(F)F)c2c(=O)[nH]ncc21)C1CCN(c2ncc(C(F)(F)F)cn2)CC1 [Compound 317, N-methyl-2-(2-(4-oxo-3-(trifluoromethyl)-4,5-dihydro-1H-pyrazolo[3,4-d]pyridazin-1-yl)ethoxy)-N-(1-(5-(trifluoromethyl)pyrimidin-2-yl)piperidin-4-yl)acetamide]	≤ 100 nM
O=C(CCOCCn1nc(C(F)(F)F)c2c(=O)[nH]ncc21)N1CCN(c2noc(C(F)(F)F)n2)CC1 [Compound 320]	≤ 100 nM
CNC(=O)c1cnc(N2CCN(C(=O)CCOCC(C)n3nc(C(F)(F)F)c4c(=O)[nH]ncc43)CC2)nc1 (centres unmarked) [Compound 325]	≤ 100 nM
CC(COCCC(=O)N1CCN(c2ncc(C#N)o2)CC1)n1nc(C(F)(F)F)c2c(=O)[nH]ncc21 (centres unmarked) [Compound 329]	≤ 100 nM
CC(COCCC(=O)N1CCN(c2ncc(C#N)o2)CC1)n1nc(C(F)(F)F)c2c(=O)[nH]ncc21 (centres unmarked) [Compound 330]	≤ 100 nM
O=C(CCOCCn1nc(C2CC2)c2c(=O)[nH]ncc21)N1CCN(c2ncc(C(F)(F)F)cn2)CC1 [Compound 333]	≤ 100 nM
Cc1ccc(N2CCN(C(=O)CCOCC(C)n3nc(C(F)(F)F)c4c(=O)[nH]ncc43)CC2)nc1 (centres unmarked) [Compound 334]	≤ 100 nM
Cc1nn(C(C)COCCC(=O)N2CCN(c3ncc(Cl)cn3)CC2)c2cn[nH]c(=O)c12 (centres unmarked) [Compound 336]	≤ 100 nM
O=C(CCOCCn1ncc2c(=O)[nH]ncc21)N1CCN(c2ccc(C(F)(F)F)cc2)C(=O)C1 [Compound 337]	1000 to 10000 nM
N#Cc1cn(CCOCCC(=O)N2CCN(c3ncc(C(F)(F)F)cn3)CC2)c2cn[nH]c(=O)c12 [Compound 340]	≤ 100 nM
O=C(CCOCCn1cc(C(F)(F)F)c2c(=O)[nH]ncc21)N1CCN(c2nc(C(F)(F)F)cs2)CC1 [Compound 341]	≤ 100 nM
CC(COCCC(=O)N1CCN(c2ccc(C(F)F)cn2)CC1)n1nc(C(F)(F)F)c2c(=O)[nH]ncc21 (centres unmarked) [Compound 342]	≤ 100 nM
CC(COCCC(=O)N1CCN(c2ccc(C(F)F)cn2)CC1)n1nc(C(F)(F)F)c2c(=O)[nH]ncc21 (centres unmarked) [Compound 343]	≤ 100 nM
CC(COCCC(=O)N1CCN(c2noc(C(F)(F)F)n2)CC1)n1nc(C(F)(F)F)c2c(=O)[nH]ncc21 (centres unmarked) [Compound 345]	100 to 1000 nM
CC(C)(COCCC(=O)N1CCN(c2ncc(C(F)(F)F)cn2)CC1)n1nc(C(F)(F)F)c2c(=O)[nH]ncc21 [Compound 346]	≤ 100 nM
CC(COCCC(=O)N1CCN(c2ccc(F)cn2)CC1)n1nc(C(F)(F)F)c2c(=O)[nH]ncc21 (centres unmarked) [Compound 347]	≤ 100 nM
CC(COCCC(=O)N1CCN(c2ccc(F)cn2)CC1)n1nc(C(F)(F)F)c2c(=O)[nH]ncc21 (centres unmarked) [Compound 348]	≤ 100 nM
CC(COCCC(=O)N1CCN(c2ncc(F)cc2F)CC1)n1nc(C(F)(F)F)c2c(=O)[nH]ncc21 (centres unmarked) [Compound 349]	≤ 100 nM
CC(COCCC(=O)N1CCN(c2cc(C(F)(F)F)ccn2)CC1)n1nc(C(F)(F)F)c2c(=O)[nH]ncc21 (centres unmarked) [Compound 351]	≤ 100 nM
